Laboratory results reported in the NIST ThermoML archive (doi:10.1021/je049706p).
Numbers after ± are expanded uncertainties.

Test: refractive index (Na D-line) (dimensionless)
Details: 293.1 K; 101.33 kPa; Liquid; Standard Abbe refractometry

Compound: CN1CCCC1=O [N-methylpyrrolidone]
- refractive index: 1.4686 ± 0.0012
